Laboratory results reported in ChEMBL document CHEMBL3621136, “Design, synthesis, and biological and docking studies of novel epipodophyllotoxinchalcone hybrids as potential anticancer agents” (Medchemcomm, 2015).

What was measured:
Assay type in all cases: functional, cell-based
SW-620 = assay: Cytotoxicity against human SW620 cells assessed as growth inhibition after 48 hrs by SRB assay; conditions: SW-620, 48 h
DU-145 = assay: Cytotoxicity against human DU145 cells assessed as growth inhibition after 48 hrs by SRB assay; conditions: DU-145, 48 h
SK-N-SH = assay: Cytotoxicity against human SK-N-SH cells assessed as growth inhibition after 48 hrs by SRB assay
HCT-15 = assay: Cytotoxicity against human HCT15 cells assessed as growth inhibition after 48 hrs by SRB assay; conditions: HCT-15, 48 h
COLO 205 = assay: Cytotoxicity against human COLO205 cells assessed as growth inhibition after 48 hrs by SRB assay; conditions: COLO 205, 48 h
HeLa = assay: Cytotoxicity against human HeLa cells assessed as growth inhibition after 48 hrs by SRB assay

Structure (SMILES)	IC50 (SW-620)	IC50 (DU-145)	IC50 (SK-N-SH)	IC50 (HCT-15)	IC50 (COLO 205)	IC50 (HeLa)
COc1cc([C@@H]2c3cc4c(cc3[C@@H](n3cc(COc5ccc(C(C)=O)cc5)nn3)[C@H]3COC(=O)[C@H]23)OCO4)cc(OC)c1OC	14.6 µM	13.6 µM	15.6 µM	13.5 µM	18.8 µM	18.5 µM
COc1cc([C@@H]2c3cc4c(cc3[C@@H](n3cc(COc5ccc(/C=C/C(C)=O)cc5)nn3)[C@H]3COC(=O)[C@H]23)OCO4)cc(OC)c1OC	10.2 µM	11.3 µM	14.4 µM	16.3 µM	7.6 µM	
COc1cc(/C=C/C(C)=O)ccc1OCc1cn([C@@H]2c3cc4c(cc3[C@@H](c3cc(OC)c(OC)c(OC)c3)[C@H]3C(=O)OC[C@@H]32)OCO4)nn1	3.41 µM		10 µM	10.4 µM	8.98 µM	3.4 µM
COc1cc([C@@H]2c3cc4c(cc3[C@@H](n3cc(COc5ccc(C(=O)/C=C/c6ccccc6)cc5)nn3)[C@H]3COC(=O)[C@H]23)OCO4)cc(OC)c1OC	2.02 µM	30.2 µM	4.13 µM	12.8 µM	9.12 µM	5.34 µM
COc1cc([C@@H]2c3cc4c(cc3[C@@H](n3cc(COc5ccc(/C=C/C(=O)c6ccccc6)cc5)nn3)[C@H]3COC(=O)[C@H]23)OCO4)cc(OC)c1OC	9.2 µM	30 µM	25.6 µM	15.3 µM	29.3 µM	19.1 µM
COc1cc([C@@H]2c3cc4c(cc3[C@@H](n3cc(COc5ccc(C(=O)/C=C/c6ccc(F)cc6)cc5)nn3)[C@H]3COC(=O)[C@H]23)OCO4)cc(OC)c1OC	2.4 µM	6.5 µM	3.4 µM	12 µM	13.2 µM	
COc1cc([C@@H]2c3cc4c(cc3[C@@H](n3cc(COc5ccc(C(=O)/C=C/c6cccc(F)c6)cc5)nn3)[C@H]3COC(=O)[C@H]23)OCO4)cc(OC)c1OC	5.21 µM	13.3 µM	12.4 µM	15.6 µM	7.32 µM	14.2 µM
COc1cc([C@@H]2c3cc4c(cc3[C@@H](n3cc(COc5ccc(C(=O)/C=C/c6ccccc6F)cc5)nn3)[C@H]3COC(=O)[C@H]23)OCO4)cc(OC)c1OC	8.12 µM	20.2 µM	6.73 µM	12.9 µM		17.2 µM
COc1cc([C@@H]2c3cc4c(cc3[C@@H](n3cc(COc5ccc(C(=O)/C=C/c6cccc(C)c6)cc5)nn3)[C@H]3COC(=O)[C@H]23)OCO4)cc(OC)c1OC	6.53 µM	9.36 µM	7.13 µM		8.23 µM	12.2 µM
COc1ccc(/C=C/C(=O)c2ccc(OCc3cn([C@@H]4c5cc6c(cc5[C@@H](c5cc(OC)c(OC)c(OC)c5)[C@H]5C(=O)OC[C@@H]54)OCO6)nn3)cc2)cc1	11.2 µM	10.2 µM	7.32 µM	6.12 µM	12.3 µM	
COc1cc([C@@H]2c3cc4c(cc3[C@@H](n3cc(COc5ccc(C(C)=O)cc5)nn3)[C@H]3COC(=O)[C@H]23)OCO4)cc(OC)c1O	11.6 µM	16.6 µM	11.6 µM	12 µM	14.8 µM	18.9 µM
COc1cc([C@@H]2c3cc4c(cc3[C@@H](n3cc(COc5ccc(/C=C/C(C)=O)cc5)nn3)[C@H]3COC(=O)[C@H]23)OCO4)cc(OC)c1O	7.5 µM	12 µM	10.3 µM	6.82 µM		13.1 µM
COc1cc(/C=C/C(C)=O)ccc1OCc1cn([C@@H]2c3cc4c(cc3[C@@H](c3cc(OC)c(O)c(OC)c3)[C@H]3C(=O)OC[C@@H]32)OCO4)nn1	5.66 µM	6.5 µM	5.45 µM	12.4 µM	18.2 µM	5 µM
COc1cc([C@@H]2c3cc4c(cc3[C@@H](n3cc(COc5ccc(C(=O)/C=C/c6ccccc6)cc5)nn3)[C@H]3COC(=O)[C@H]23)OCO4)cc(OC)c1O	0.64 µM	12 µM	0.66 µM	9.5 µM	12.3 µM	5.9 µM
COc1cc([C@@H]2c3cc4c(cc3[C@@H](n3cc(COc5ccc(/C=C/C(=O)c6ccccc6)cc5)nn3)[C@H]3COC(=O)[C@H]23)OCO4)cc(OC)c1O	4.4 µM	5.45 µM	8.3 µM	6.75 µM		9.18 µM
COc1cc([C@@H]2c3cc4c(cc3[C@@H](n3cc(COc5ccc(C(=O)/C=C/c6ccc(F)cc6)cc5)nn3)[C@H]3COC(=O)[C@H]23)OCO4)cc(OC)c1O	0.35 µM	12 µM	0.39 µM	12.4 µM	12.5 µM	4.5 µM
COc1cc([C@@H]2c3cc4c(cc3[C@@H](n3cc(COc5ccc(C(=O)/C=C/c6cccc(F)c6)cc5)nn3)[C@H]3COC(=O)[C@H]23)OCO4)cc(OC)c1O	5.36 µM	7.4 µM	4.5 µM		5.15 µM	6.4 µM
COc1cc([C@@H]2c3cc4c(cc3[C@@H](n3cc(COc5ccc(C(=O)/C=C/c6ccccc6F)cc5)nn3)[C@H]3COC(=O)[C@H]23)OCO4)cc(OC)c1O	12.6 µM	9.34 µM	7.4 µM	15.2 µM	12.3 µM	
COc1cc([C@@H]2c3cc4c(cc3[C@@H](n3cc(COc5ccc(C(=O)/C=C/c6cccc(C)c6)cc5)nn3)[C@H]3COC(=O)[C@H]23)OCO4)cc(OC)c1O	11.5 µM	20.5 µM	13.5 µM	12.2 µM	15.4 µM	9.32 µM
COc1ccc(/C=C/C(=O)c2ccc(OCc3cn([C@@H]4c5cc6c(cc5[C@@H](c5cc(OC)c(O)c(OC)c5)[C@H]5C(=O)OC[C@@H]54)OCO6)nn3)cc2)cc1	10.3 µM	12.5 µM	15.6 µM	7.45 µM		6.8 µM
COc1cc([C@@H]2c3cc4c(cc3[C@@H](O[C@@H]3O[C@@H]5CO[C@@H](C)O[C@H]5[C@H](O)[C@H]3O)[C@H]3COC(=O)[C@H]23)OCO4)cc(OC)c1O [ETOPOSIDE]	13.2 µM	16.4 µM	9.03 µM	12.2 µM	14.2 µM	10.4 µM
